These results are taken from US10035801B2, “Pyrazolo compounds and uses thereof” (CONSTELLATION PHARMACEUTICALS, INC., priority 2013, dated 2018).

In this experiment the target is T1, GASC1 (Homo sapiens, UniProt Q9H3R0).
T1 construct: 6×His tagged recombinant GASC1 (N 350aa) was purified from E. Coli BL21(DE3); 6xHis; made in house; host or cells: E. coli BL21(DE3)
T1 sequence (Q9H3R0 1-350 limits assumed): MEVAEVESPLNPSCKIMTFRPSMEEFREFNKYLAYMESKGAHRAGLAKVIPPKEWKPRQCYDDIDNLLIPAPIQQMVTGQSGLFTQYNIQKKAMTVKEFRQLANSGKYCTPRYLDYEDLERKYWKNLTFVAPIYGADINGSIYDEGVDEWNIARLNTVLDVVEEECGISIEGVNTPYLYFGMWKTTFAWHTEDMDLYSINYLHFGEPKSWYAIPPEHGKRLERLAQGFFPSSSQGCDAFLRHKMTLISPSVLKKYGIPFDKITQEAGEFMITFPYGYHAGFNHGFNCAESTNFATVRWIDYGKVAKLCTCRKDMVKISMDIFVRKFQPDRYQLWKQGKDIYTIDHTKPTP
The experiment can be described thus: GASC1 demethylation assay on H3K9Me3 peptide (RapidFire HT-MS). The class given is biochemical. The following applies: read-out: GASC1 Inhibition. On the procedure:
6×His tagged recombinant GASC1 (N 350aa) was purified from E. Coli BL21(DE3) to near homogeneity. The demethylation reaction buffer contained 50 mM TrisCl pH 7.5, 0.01% Triton X-100, 5% glycerol, 1 mM ascorbate (Cat# A4034, Sigma Aldrich), 5 μM α-ketoglutarate (# K2010, Sigma Aldrich) and 20 μM Fe2(NH4)2(SO4)2 (Cat# F1543, Sigma Aldrich). In 25 μL demethylation reaction system, 400 nM recombinant GASC1 and 20 μM H3K9me3 peptide (1-21 aa) were incubated with compounds for 10 minutes, and then α-ketoglutarate and Fe2(NH4)2(SO4)2 were added to initiate the reaction. All of the reactions were incubated for 45 minutes at room temperature, and then 25 μl of 1 N HCl was added to quench the reactions. After termination, plates were sealed and frozen at −80° C. and shipped on dry ice to BioTrove Inc. (Woburn, Mass.) for analysis.
All the reactions were read by RapidFire™ HT-MS platform developed in BioTrove Inc, and the method has been described in detail previously (Assay and Drug Development Technologies, 2004; 2(4): 373-381). Briefly, at BioTrove, plates were thawed and immediately analyzed using RapidFire™ system coupled to a Sciex API4000 triple quadrapole mass spectrometer. The samples were delivered directly from the plate to a clean-up cartridge (BioTrove column A) to remove nonvolatile assay components with 0.1% formic acid in a 3-sec wash cycle. The peptide substrate and demethylated product were coeluted to the mass spectrometer with 80% acetonitrile, 0.1% formic acid. Both the substrate and product signals were read at their +5 charge species, and the conversion from substrate to product is assessed by [H3K9me2 Read]/[H3K9me2 Read+H3K9me3 Read].
For `CCOC(=O)c1[nH]c2c(C#N)c(C)nn2c(=O)c1CC` [Compound I-26], the IC50 was 1 to 10 µM.

Turning to `CCCc1c(CO)[nH]c2c(C#N)cnn2c1=O` [Compound I-33], the IC50 lay within 1 to 10 µM. As for `CCCc1c(COC)[nH]c2c(C#N)cnn2c1=O` [Compound I-31], the IC50 lay in the range of 1 to 10 µM. Regarding `Cc1[nH]c2c(C#N)cnn2c(=O)c1CCO` [Compound I-40], the IC50 was 1 to 10 µM. Take `Cc1[nH]c2c(C#N)cnn2c(=O)c1CC(C)C` [Compound I-39]: the IC50 lay within 1 to 10 µM. `CCCc1c(C)[nH]c2c(C#N)cnn2c1=O` [Compound I-17]: the IC50 was not above 1 µM. Take `CCCc1c(C)[nH]c2c(C#N)c(C)nn2c1=O` [Compound I-16]: the IC50 lay within 1 to 10 µM. With `CCc1c(CO)[nH]c2c(C#N)c(C)nn2c1=O` [Compound I-22], the IC50 lay within 1 to 10 µM. As for `CCOCc1[nH]c2c(C#N)cnn2c(=O)c1CC` [Compound I-45], the IC50 was not above 1 µM.

On to `CCOC(=O)Cc1c(C)[nH]c2c(C#N)cnn2c1=O` [Compound I-2], for which the IC50 is not below 50 µM.

For the compound `CCc1c(C(F)(F)F)[nH]c2c(C#N)cnn2c1=O` [Compound I-41], the IC50 is not above 1 µM. As for `Cn1c2c(c(=O)n3ncc(C#N)c13)CCCC2` [Compound I-14], the IC50 was not below 50 µM.

For the compound `Cc1nn2c(=O)c3c([nH]c2c1C#N)CCCC3` [Compound I-12], the IC50 fell in the range of 10 to 50 µM. Then `Cc1[nH]c2c(C#N)cnn2c(=O)c1Cc1ccccc1` [Compound I-6], with not below 50 µM. As to `COCCc1c(C)[nH]c2c(C#N)cnn2c1=O` [Compound I-28], the IC50 was not below 50 µM.

Consider `CCc1c(Cc2ccccc2)[nH]c2c(C#N)cnn2c1=O` [Compound I-44], for which the IC50 is not above 1 µM. On to `CCc1c(COC)[nH]c2c(C#N)c(C)nn2c1=O` [Compound I-24], for which the IC50 lay in the range of 1 to 10 µM. As for `CCc1c(CCCOC)[nH]c2c(C#N)cnn2c1=O` [Compound I-32], the IC50 is 1 to 10 µM. On to `CCc1nn2c(=O)c3c([nH]c2c1C#N)CCCC3` [Compound I-13], for which the IC50 was not below 50 µM. Then `N#Cc1cnn2c(=O)c3c([nH]c12)CCC3` [Compound I-3], with 1 to 10 µM. In the case of `CCc1c(CCCO)[nH]c2c(C#N)cnn2c1=O` [Compound I-38], the IC50 was not above 1 µM.

Regarding `C=CCc1c(CO)[nH]c2c(C#N)cnn2c1=O` [Compound I-50], the IC50 was 1 to 10 µM.

Take `Cc1nn2c(=O)c(C(C)C)c(C)[nH]c2c1C#N` [Compound I-15]: the IC50 was in the range of 1 to 10 µM. On to `Cc1c(C(C)C)c(=O)n2ncc(C#N)c2n1-c1ccccc1` [Compound I-20], for which the IC50 is 1 to 10 µM. On to `CCc1c2n(c3c(C#N)cnn3c1=O)CCC2` [Compound I-37], for which the IC50 is not below 50 µM. On to `CCNC(=O)c1[nH]c2c(C#N)cnn2c(=O)c1CC` [Compound I-48], for which the IC50 is 1 to 10 µM. As for `CCc1c(-c2ccoc2)[nH]c2c(C#N)cnn2c1=O` [Compound I-42], the IC50 is not above 1 µM. Turning to `C=CCc1c(COC)[nH]c2c(C#N)cnn2c1=O` [Compound I-51], the IC50 was not above 1 µM.

For `N#Cc1cnn2c(=O)c3c(n(-c4ccccc4)c12)CCCC3` [Compound I-19], the IC50 is not below 50 µM. For `CCOC(=O)Cc1c(C)[nH]c2c(C#N)c(C)nn2c1=O` [Compound I-1], the IC50 is not below 50 µM. In the case of `CCc1c(CNC)[nH]c2c(C#N)cnn2c1=O` [Compound I-52], the IC50 was in the range of 1 to 10 µM. In the case of `CCc1c(C)n(CCN(C)C)c2c(C#N)cnn2c1=O` [Compound I-36], the IC50 is not below 50 µM. In the case of `CCc1c(C(C)O)[nH]c2c(C#N)cnn2c1=O` (stereo not shown) [Compound I-35] it was 1 to 10 µM. `N#Cc1cnn2c(=O)c3c(n(Cc4ccccc4)c12)CCCC3` [Compound I-18]: the IC50 is not below 50 µM. With `COCCOc1c2c(nc3c(C#N)cnn13)CCCC2` [Compound I-27], the IC50 was not below 50 µM. For `N#Cc1cnn2c(=O)c3ccccc3[nH]c12` [Compound I-55], the IC50 lay within 1 to 10 µM.

Regarding `C=CCc1c(C)[nH]c2c(C#N)cnn2c1=O` [Compound I-34], the IC50 is not above 1 µM.
